What all share (assay): inhibition of tumour cell growth, NCI panel, 48 h
Assay [1] deals with SNB-19.
Assay [2] has as its system CCRF-CEM.
The test system of assay [3] is HOP-18.
For assay [4], the system named is UACC-62.
The test system of assay [5] is T47D.
In assay [6] the test system is SF-268.
The test system of assay [7] is HT-29.
The subject of assay [8] is OVCAR-4.
Assay [9] relates to 786-0.
The subject of assay [10] is MDA-MB-435.
The subject of assay [11] is IGROV-1.
Assay [12] has as its system COLO 205.
In assay [13] the test system is HCC 2998.
The test system of assay [14] is MCF7.
Assay [15] has as its system LOX IMVI.
For assay [16], the system named is PC-3.
In assay [17] the test system is Malme-3M.
The subject of assay [18] is CAKI-1.
In assay [19] the test system is Hs-578T.
Assay [20] relates to HOP-62.

Each structure is given as a SMILES string.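 These data come from cells grown in 96-well plates and exposed to compound for 48 hours at five concentrations. Here, GI50 denotes the concentration required for 50% inhibition of growth.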 Activity calls are given as the source filed them. No stated cut-off is given here; in the data, active = GI50 up to about 1.1 µM and inactive = higher.

With `CCC(=O)OC1CCn2c1nc1c2C(=O)C(C)=C(N2CC2)C1=O` (stereo not given), the GI50 in assay [1] is 98.9 nM (active); in assay [2], 590 nM (active); in assay [3], 43.9 nM (active); in assay [4], 60.7 nM (active); in assay [5] it was 1600 nM (inactive); in [6], 75.5 nM (active). Besides, the GI50 in assay [7] is 183 nM (active); in assay [8], 126 nM (active); in assay [9], 84.1 nM (active); in assay [10], 25.4 nM (active); in assay [11] it was 482 nM (active); in [12], 199 nM (active). In addition, the GI50 is 61.5 nM (active) in [13]; 6.37 nM (active) in assay [14]; 77.1 nM (active) in assay [15]; 105 nM (active) in assay [16]; 63 nM (active) in assay [17]; 50.9 nM (active) in assay [18]. The GI50 was 45.5 nM (active) in assay [19] and 69.7 nM (active) in [20].
As to `CCOc1ccc(/N=C/c2ccnc3ccccc23)cc1`, the GI50 in assay [1] is 82800 nM (inactive); in assay [2] it was 2630 nM (inactive); in assay [3] it was > 100000 nM (inactive); in assay [4], 60800 nM (inactive); in [5], 47900 nM (inactive); in assay [6] it was 27200 nM (inactive). Further, the GI50 in [7] is 27300 nM (inactive); in [8] it was 62800 nM (inactive); in [9], 57100 nM (inactive); in assay [10] it was 42700 nM (inactive); in assay [11], 43000 nM (inactive); in assay [12], 81300 nM (inactive). For the same compound, the GI50 in [13] was 32400 nM (inactive); in [14] it was 5980 nM (inactive); in assay [15] it was 13200 nM (inactive); in assay [16] it was 31500 nM (inactive); in assay [17], 75900 nM (inactive); in assay [18] it was 74300 nM (inactive). In addition, the GI50 in [19] was 40400 nM (inactive); in assay [20], 54600 nM (inactive).
In the case of `CCC1(O)C(=O)OCc2c1cc1n(c2=O)Cc2cc3ccc(C=O)cc3nc2-1` (stereo not given), the GI50 is 2040 nM (inactive) in assay [1]; 43.1 nM (active) in assay [2]; 3470 nM (inactive) in assay [3]; 566 nM (active) in assay [4]; 655 nM (active) in assay [5]; 321 nM (active) in [6]. Moreover, the GI50 in assay [7] is 4900 nM (inactive); in [8], 3330 nM (inactive); in assay [9] it was 608 nM (active); in assay [10], 7180 nM (inactive); in assay [11], 8090 nM (inactive); in assay [12], 9080 nM (inactive). Also, the GI50 is 4620 nM (inactive) in assay [13]; 335 nM (active) in assay [14]; 472 nM (active) in assay [15]; 5530 nM (inactive) in [16]; 4330 nM (inactive) in assay [17]; 1730 nM (inactive) in assay [18]. Besides, the GI50 in assay [19] was 17800 nM (inactive); in [20], 294 nM (active).

The record behind these values is ChEMBL document CHEMBL1201862, “PubChem BioAssay data set” (2004).
